System: human venous whole blood, CD8 positive population (pERK)
Assay: DGK human whole blood pERK assay
Assay type: cell-based
Details: Homo sapiens, CD8 positive, human whole blood pERK; read-out: DGK HWB
Procedure: Assay 11: DGK Human Whole Blood pERK Assay
Human whole blood ERK phosphorylation assay was performed with human venous whole blood obtained from healthy donors (drawn with Heparin as anti-coagulant). […] Heparinized human whole blood was added to the compound plate at 9 μL per well and incubated for one hour at 37° C. in a humidified 95%, air/5% CO2 incubator. After one hour of compound incubation, 1 μL of human anti-CD3 antibody (in-house) in the presence of cross-linking antibody goat anti-mouse IgG (4 μg/mL) was added to the well at 1 μg/mL final concentration for stimulation of pathway and additionally incubated for 15 minutes at 37° C. […] Samples analyzed using the Intellicyt® iQue Screener PLUS. The pERK activation was quantitated by the percentage of pERK positive population within CD8 positive population.

Compound	EC50 [µM]
CC1CN(c2c(C#N)c(=O)n(C)c3ccc(C#N)nc23)CCC1N(C)C1CCC(F)(F)CC1 (single isomer, unassigned) [Example 329]	13
CC[C@@H]1CN(c2cc(=O)n(C)c3ccc(C#N)nc23)[C@H](C)C[C@H]1Oc1cccc(C(F)(F)F)c1 [Example 310, 8-((2R,4R,5R)-5-ethyl-2-methyl-4-(3-(trifluoromethyl)phenoxy)piperidin-1-yl)-5-methyl-6-oxo-5,6-dihydro-1,5-naphthyridine-2-carbonitrile]	9.9
Cc1ccc(O[C@@H]2C[C@H](C)N(c3cc(=O)n(C)c4ccc(C#N)nc34)C[C@@H]2C)cc1 [Example 312, 8-((2S,4R,5S)-2,5-dimethyl-4-(p-tolyloxy)piperidin-1-yl)-5-methyl-6-oxo-5,6-dihydro-1,5-naphthyridine-2-carbonitrile]	6
C[C@H]1CN(c2cc(=O)n(C)c3ccc(C#N)nc23)[C@@H](C)C[C@H]1Oc1cccc(Cl)c1 [Example 313, 8-((2S,4R,5S)-4-(3-chlorophenoxy)-2,5-dimethylpiperidin-1-yl)-5-methyl-6-oxo-5,6-dihydro-1,5-naphthyridine-2-carbonitrile]	7.1
C[C@H]1CN(c2cc(=O)n(C)c3ccc(C#N)nc23)[C@@H](C)C[C@H]1Oc1cccc(C#N)c1 [Example 314, 8-((2S,4R,5S)-4-(3-cyanophenoxy)-2,5-dimethylpiperidin-1-yl)-5-methyl-6-oxo-5,6-dihydro-1,5-naphthyridine-2-carbonitrile]	16

Same assay, conditions: Homo sapiens, CD8 positive, read-out: DGK HWB, human whole blood pERK

EC50 [µM]	Compound
2.3	CCO[C@H]1CN(c2cc(=O)n(C)c3ccc(C#N)nc23)CC[C@@H]1Oc1ccc(OC(C)C)nn1 [Example 375, 8-((3S,4S)-3-ethoxy-4-((6-isopropoxypyridazin-3-yl)oxy)piperidin-1-yl)-5-methyl-6-oxo-5,6-dihydro-1,5-naphthyridine-2-carbonitrile]
0.91	CC[C@@H]1CN(c2cc(=O)n(C)c3ccc(C#N)nc23)[C@H](C)C[C@@H]1Oc1ccc(OC(C)C)cn1 [Example 298, 8-((2R,4S,5R)-5-ethyl-4-((5-isopropoxypyridin-2-yl)oxy)-2-methylpiperidin-1-yl)-5-methyl-6-oxo-5,6-dihydro-1,5-naphthyridine-2-carbonitrile]
11	CC[C@@H]1CN(c2nc(=O)n(C)c3ccc(C#N)nc23)[C@@H](C)C[C@H]1Oc1ccc(OC(C)C)cn1 [Example 301, 4-((2S,4R,5R)-5-ethyl-4-((5-isopropoxypyridin-2-yl)oxy)-2-methylpiperidin-1-yl)-1-methyl-2-oxo-1,2-dihydropyrido[3,2-d]pyrimidine-6-carbonitrile]
0.73	CC[C@@H]1CN(c2nc(=O)n(C)c3ccc(C#N)nc23)[C@H](C)C[C@@H]1Oc1ccc(OC(C)C)cn1 [Example 305, 4-((2R,4S,5R)-5-ethyl-4-((5-isopropoxypyridin-2-yl)oxy)-2-methylpiperidin-1-yl)-1-methyl-2-oxo-1,2-dihydropyrido[3,2-d]pyrimidine-6-carbonitrile]

Same assay, conditions: human whole blood pERK; read-out: DGK HWB

Compound	EC50 [µM]
CCO[C@H]1CN(c2cc(=O)n(C)c3ccc(C#N)nc23)CC[C@@H]1Oc1cccc(C(F)(F)F)n1 (relative stereo) [Example 363, trans-8-(3-Ethoxy-4-((6-(trifluoromethyl)pyridin-2-yl)oxy)piperidin-1-yl)-5-methyl-6-oxo-5,6-dihydro-1,5-naphthyridine-2-carbonitrile]	1.1
CCO[C@H]1CN(c2cc(=O)n(C)c3ccc(C#N)nc23)CC[C@@H]1Oc1ccc2oc(C)nc2c1 [Example 356, 8-((3S,4S)-3-ethoxy-4-((2-methylbenzo[d]oxazol-5-yl)oxy)piperidin-1-yl)-5-methyl-6-oxo-5,6-dihydro-1,5-naphthyridine-2-carbonitrile]	3.9
CCO[C@H]1CN(c2cc(=O)n(C)c3ccc(C#N)nc23)CC[C@@H]1Oc1ccc(C(F)(F)F)cc1 [Example 344, 8-((3S,4S)-3-ethoxy-4-(4-(trifluoromethyl)phenoxy)piperidin-1-yl)-5-methyl-6-oxo-5,6-dihydro-1,5-naphthyridine-2-carbonitrile]	20
CCO[C@H]1CN(c2cc(=O)n(C)c3ccc(C#N)nc23)CC[C@H]1Oc1ccc(OC(C)C)cn1 (relative stereo) [Example 372, cis-8-(3-Ethoxy-4-((5-isopropoxypyridin-2-yl)oxy)piperidin-1-yl)-5-methyl-6-oxo-5,6-dihydro-1,5-naphthyridine-2-carbonitrile]	18
CCO[C@H]1CN(c2cc(=O)n(C)c3ccc(C#N)nc23)CC[C@@H]1Oc1ccccc1 (relative stereo) [Example 342, trans-8-(3-Ethoxy-4-phenoxypiperidin-1-yl)-5-methyl-6-oxo-5,6-dihydro-1,5-naphthyridine-2-carbonitrile]	0.84
CCO[C@H]1CN(c2cc(=O)n(C)c3ccc(C#N)nc23)CC[C@@H]1Oc1ccc2oc(C)nc2c1 [Example 355, 8-((3S,4S)-3-ethoxy-4-((2-methylbenzo[d]oxazol-5-yl)oxy)piperidin-1-yl)-5-methyl-6-oxo-5,6-dihydro-1,5-naphthyridine-2-carbonitrile]	20
CCO[C@H]1CN(c2cc(=O)n(C)c3ccc(C#N)nc23)CC[C@@H]1Oc1ccccc1C(F)(F)F [Example 346, 8-((3S,4S)-3-ethoxy-4-(2-(trifluoromethyl)phenoxy)piperidin-1-yl)-5-methyl-6-oxo-5,6-dihydro-1,5-naphthyridine-2-carbonitrile]	20
CCO[C@H]1CN(c2cc(=O)n(C)c3ccc(C#N)nc23)CC[C@H]1Oc1ccc(OC(C)C)cn1 (relative stereo) [Example 371, cis-8-(3-Ethoxy-4-((5-isopropoxypyridin-2-yl)oxy)piperidin-1-yl)-5-methyl-6-oxo-5,6-dihydro-1,5-naphthyridine-2-carbonitrile]	3.6
CCO[C@H]1CN(c2cc(=O)n(C)c3ccc(C#N)nc23)CC[C@@H]1Oc1cccc(OC(F)(F)F)c1 [Example 351, 8-((3S,4S)-3-ethoxy-4-(3-(trifluoromethoxy)phenoxy)piperidin-1-yl)-5-methyl-6-oxo-5,6-dihydro-1,5-naphthyridine-2-carbonitrile]	0.21

Same assay, conditions: human whole blood, CD8 positive population, anti-CD3 stimulation; top concentration 20 μM; read-out: DGK HWB (human whole blood pERK)

Compound	EC50 [µM]
CCO[C@H]1CN(c2cc(=O)n(C)c3ccc(C#N)nc23)CC[C@@H]1Oc1ccc(OC(C)C)cn1 (relative stereo) [Example 397, trans-8-(4-((5-Isopropoxypyridin-2-yl)oxy)-3-ethoxypiperidin-1-yl)-5-methyl-6-oxo-5,6-dihydro-1,5-naphthyridine-2-carbonitrile]	0.14

Same assay, conditions: read-out: DGK HWB; human whole blood pERK

EC50 [µM]	Compound
20	CCO[C@H]1CN(c2cc(=O)n(C)c3ccc(C#N)nc23)CC[C@@H]1Oc1ccnc(C(F)(F)F)c1 [Example 359, 8-((3S,4S)-3-ethoxy-4-((2-(trifluoromethyl)pyridin-4-yl)oxy)piperidin-1-yl)-5-methyl-6-oxo-5,6-dihydro-1,5-naphthyridine-2-carbonitrile]
2.1	CC(C)Oc1ccc(OC2C[C@H](C)N(c3nc(=O)n(C)c4ccc(C#N)nc34)C[C@H]2C)nc1 (stereo partly drawn) [Example 250, 4-((2S,5R)-4-((5-isopropoxypyridin-2-yl)oxy)-2,5-dimethylpiperidin-1-yl)-1-methyl-2-oxo-1,2-dihydropyrido[3,2-d]pyrimidine-6-carbonitrile]

Source: patent US11964973B2 (priority 2019, dated 2024)
